Source: PubChem BioAssay (NCI)
“And” between values parts separate entries of the source, which are not always exact repeats. Identical values can stand only once.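 How tested: cells in 96-well plates exposed to compound for 48 hours at five concentrations. GI50 = concentration required for 50% inhibition of growth. TGI: concentration producing complete growth inhibition.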

tested on: ACHN renal; assay: NCI anticancer screen, dose series, 48 h

First: CN/N=C(/Cc1occc(=O)c1O)C(=O)Nc1ccccc1C
Second: COc1cc(/C=N/NC(=O)c2ccc(C(F)(F)F)nc2Nc2ccc(Cl)cc2C)ccc1O
The TGI of the first is higher: greater than 100 µM for the first, 13.7 µM for the second.

Going from `Cc1coc2c1CC1(C)C(CCC(O)C1C)C2` (stereo unspecified) to `Cc1cc(I)cc(CN(C)CCCCN2CCCCC2)c1O`, the TGI falls from greater than 100 µM to 76.7 µM.

Going from `COc1ccc2c(c1)/C(=C/c1c(C)nc3sc(C)nn13)C(=O)N2` to `CC1=C(C(=O)Nc2ccc(Cl)c(Cl)c2)C(c2cccc(Oc3ccccc3)c2)NC(=S)N1` (stereo unspecified), the TGI falls from greater than 100 µM to 15.1 µM.

Compared with `C#Cc1ccc(-n2c(/C=C/c3ccc(C(F)(F)F)cc3)nc3ncccc3c2=O)cc1`, `c1ccc2cc(-c3cc(-c4cc(-c5ccc6ccccc6c5)on4)no3)ccc2c1` is higher in TGI: 3.26 µM for the first, greater than 100 µM for the second.

`COc1ccc(C(=O)Cn2c(C(=O)c3ccccc3)nc(-c3ccc(OC)cc3)c2-c2ccc(OC)cc2)cc1` and `CSc1nc2c(c(=O)[nH]1)N=C1c3ccccc3C(=O)C1C(c1ccccc1)N2` (stereo unspecified) cannot be ordered by TGI: greater than 100 µM for the first, greater than 100 µM for the second.

`O=C1c2ccccc2C2C1N2C(=O)C(F)(F)F` (stereo unspecified) and `CCOC(=O)[C@]1(OC(C)=O)C[C@H](OC(C)=O)[C@@H](C(F)COP(=O)(OCc2ccccc2)OCc2ccccc2)O1` (stereo partly specified) cannot be ordered by TGI: greater than 100 µM for the first, greater than 100 µM for the second.

`N#CCCN(CCC#N)c1ccc(/C=C2\N=C(c3cc([N+](=O)[O-])ccc3Cl)OC2=O)cc1` was tested, and the TGI was greater than 100 µM.

Compared with `COc1ccc2c(c1)/C(=C/c1c(C)nc3sc(C)nn13)C(=O)N2`, `COc1cc(/C=N/NC(=O)c2ccc(C(F)(F)F)nc2Nc2ccc(Cl)cc2C)ccc1O` is 2.1-fold lower in GI50: 6.53 µM for the first, 3.06 µM for the second.

First: Cc1cc(I)cc(CN(C)CCCCN2CCCCC2)c1O
Second: CC1=C(C(=O)Nc2ccc(Cl)c(Cl)c2)C(c2cccc(Oc3ccccc3)c2)NC(=S)N1 (stereo unspecified)
The GI50 of the first is 3.4-fold higher: 27.3 µM for the first, 8.07 µM for the second.

First: C#Cc1ccc(-n2c(/C=C/c3ccc(C(F)(F)F)cc3)nc3ncccc3c2=O)cc1
Second: CSc1nc2c(c(=O)[nH]1)N=C1c3ccccc3C(=O)C1C(c1ccccc1)N2 (stereo unspecified)
The GI50 of the first is 2.2-fold lower: 1.71 µM for the first, 3.73 µM for the second.

`COc1ccc(C(=O)Cn2c(C(=O)c3ccccc3)nc(-c3ccc(OC)cc3)c2-c2ccc(OC)cc2)cc1` gave a GI50 greater than 100 µM.

With `O=C(Nc1ccc(Cl)c(Cl)c1)Nc1ccc(Cl)c(Cl)c1` the GI50 was 2.34 µM and 3.28 µM.
In the case of `CCOC(=O)[C@]1(OC(C)=O)C[C@H](OC(C)=O)[C@@H](C(F)COP(=O)(OCc2ccccc2)OCc2ccccc2)O1` (stereo partly specified), the GI50 is reported as 34.8 µM and > 100 µM.

`O=C(Nc1ccc(Cl)c(Cl)c1)Nc1ccc(Cl)c(Cl)c1` was tested, and the TGI was 6.49 µM and 10.5 µM.

tested on: CAKI-1 renal; assay: NCI anticancer screen, dose series, 48 h

Going from `N#CC1C(C#N)C2(c3ccccc3)C(c3ccccc3)=NN(c3ccccc3)CC12` (stereo unspecified) to `O=C(Nc1ccccc1)NS(=O)(=O)c1ccc(-n2nc3c(c2-c2cccs2)Cc2ccccc2-3)cc1`, the TGI falls from greater than 100 µM to 44.1 µM.

Compared with `COc1cc(Cc2cnc(/N=C3\C(=O)N(CN4CCN(c5c(F)cc6c(=O)c(C(=O)O)cn(C7CC7)c6c5OC)CC4C)c4ccc(F)cc43)nc2N)cc(OC)c1OC` (stereo unspecified), `C=C(CN1CCN(c2ccc(Cl)cc2F)CC1)c1ccc(C(=O)Nc2ccccc2N)cc1` is higher in TGI: 36 µM for the first, greater than 100 µM for the second.

Compared with `CC(C)=CC(=O)C1c2cccc(O)c2C(=O)c2c(O)cc(C)cc21` (stereo unspecified), `CN/N=C(/Cc1occc(=O)c1O)C(=O)Nc1ccccc1C` is higher in TGI: 21.5 µM for the first, greater than 100 µM for the second.

`CCCCOC(=O)C1OC(O[C@H]2CCC3(C)C(CCC4(C)C3CC=C3C5CC(C)(C)CCC5(C(=O)O)CC[C@]34C)C2(C)C)C(OC2OC(CO)C(O)C(O)C2O)C(OC2OC(CO)C(O)C(O)C2O)C1O` (stereo partly specified) and `CC12CCC(O)CC1CCC1C2CCC2(C)C(C3=CC(=O)OC3)CCC12O` (stereo unspecified) cannot be ordered by TGI: 95.4 µM for the first, greater than 19.8 µM for the second.

`O=C1C=C(Cl)C(=O)C(c2ccc(Cl)cc2)=C1` and `O=C1C(Cl)=C(Nc2cccc(Cl)c2)C(=O)N1Cc1ccc(Cl)cc1Cl` are within 1.5-fold of each other in TGI: 35.1 µM for the first, 48.5 µM for the second.

First: Cc1ccc2c(=O)cc(-c3ccc(F)cc3)[nH]c2n1
Second: C#Cc1ccc(-n2c(/C=C/c3ccc(C(F)(F)F)cc3)nc3ncccc3c2=O)cc1
The TGI of the first is higher: greater than 100 µM for the first, 6.22 µM for the second.

`CCOc1ccc(NC(=O)C(=O)CC(=O)c2c[n+](=O)c3cc(C)c(C)cc3n2[O-])cc1` and `COc1ccc2c(c1)/C(=C/c1c(C)nc3sc(C)nn13)C(=O)N2` cannot be ordered by TGI: greater than 100 µM for the first, greater than 100 µM for the second.

`CN1C(=O)C(C)(C)C2(SC(C)(C)C2(C)C)N(C)C1=S` (stereo unspecified) and `CC1(C)CCc2c(c3c(c4c(=O)c(O)c(-c5ccc(O)cc5)oc24)OC(C)(C)CC3)O1` cannot be ordered by TGI: greater than 100 µM for the first, greater than 100 µM for the second.

First: Cn1cc(C2=C(c3cn(C)c4ncccc34)C(=O)NC2=O)c2ccccc21
Second: O=C(/C=C/C12c3ccccc3C(c3ccccc31)C1C(=O)NC(=O)C12)c1ccncc1 (stereo unspecified)
The TGI of the first is higher: greater than 17.2 µM for the first, 11.7 µM for the second.

Compared with `Cc1coc2c1CC1(C)C(CCC(O)C1C)C2` (stereo unspecified), `Cc1cc(I)cc(CN(C)CCCCN2CCCCC2)c1O` is lower in TGI: greater than 100 µM for the first, 29.5 µM for the second.

First: COc1cc(Cc2cnc(/N=C3\C(=O)N(CN4CCN(c5c(F)cc6c(=O)c(C(=O)O)cn(C7CC7)c6c5OC)CC4C)c4ccc(F)cc43)nc2N)cc(OC)c1OC (stereo unspecified)
Second: C=C(CN1CCN(c2ccc(Cl)cc2F)CC1)c1ccc(C(=O)Nc2ccccc2N)cc1
The GI50 of the first is 5.7-fold higher: 15.5 µM for the first, 2.72 µM for the second.

Compared with `O=C(Nc1ccccc1)NS(=O)(=O)c1ccc(-n2nc3c(c2-c2cccs2)Cc2ccccc2-3)cc1`, `O=C(/C=C/C12c3ccccc3C(c3ccccc31)C1C(=O)NC(=O)C12)c1ccncc1` (stereo unspecified) is 4.3-fold lower in GI50: 11.1 µM for the first, 2.58 µM for the second.

Going from `CCCCOC(=O)C1OC(O[C@H]2CCC3(C)C(CCC4(C)C3CC=C3C5CC(C)(C)CCC5(C(=O)O)CC[C@]34C)C2(C)C)C(OC2OC(CO)C(O)C(O)C2O)C(OC2OC(CO)C(O)C(O)C2O)C1O` (stereo partly specified) to `CC1(C)CCc2c(c3c(c4c(=O)c(O)c(-c5ccc(O)cc5)oc24)OC(C)(C)CC3)O1`, the GI50 rises from 33.4 µM to greater than 100 µM.

Compared with `Cn1cc(C2=C(c3cn(C)c4ncccc34)C(=O)NC2=O)c2ccccc21`, `C#Cc1ccc(-n2c(/C=C/c3ccc(C(F)(F)F)cc3)nc3ncccc3c2=O)cc1` is 2.1-fold lower in GI50: 4.79 µM for the first, 2.26 µM for the second.

First: O=C1C(Cl)=C(Nc2cccc(Cl)c2)C(=O)N1Cc1ccc(Cl)cc1Cl
Second: COc1ccc2c(c1)/C(=C/c1c(C)nc3sc(C)nn13)C(=O)N2
The GI50 of the first is 2.3-fold higher: 5.36 µM for the first, 2.31 µM for the second.

`Cc1cc(I)cc(CN(C)CCCCN2CCCCC2)c1O` gave a GI50 of 13.6 µM.

`O=C(Nc1ccc(Cl)c(Cl)c1)Nc1ccc(Cl)c(Cl)c1` was tested, and the GI50 was 2.6 µM and 1.94 µM.

`O=C(Nc1ccc(Cl)c(Cl)c1)Nc1ccc(Cl)c(Cl)c1` was tested, and the TGI was 9.96 µM and 4.59 µM.
